Experimental data reported in patent US6335373B1, “Process to produce stabilized carnosic acid in high concentration” (Lycored Natural Products Industries, Ltd., priority 2000, dated 2002).

Key:
stephilococus = settings: against stephilococus and dental caries, reported; cited from earlier work
[1] = Exposure of carnosic acid in an extract to room temperature and light; assay type: physicochemical; settings: pH of the extract above 6
[2] = identified by Brieskorn and Domling in 1964; cited from earlier work
[3] = Stabilization of carnosic acid in 60% ethanol rosemary extract with added acids, kept in the dark; assay type: physicochemical
Protocol: To 4.0 litre of ethanol (60%) are added 500 gr. of dried and finely ground rosemary leaves, having a concentration of 4.3% carnosic acid. Extraction is done for 3 hours at room temperature. 3.22 litre of extract are obtained by vacuum filtration of the biomass. The concentrate is divided to 200 ml. portions where different acids at various concentrations are added to these portions. All portions are kept in the dark and the variations in the carnosic acid concentrations of the different portions are checked. […] Only under acidic conditions is the concentration of carnosic acid retained where the optimal acids are phosphoric and ascorbic acid.

## CC(C)c1cc2c(c(O)c1O)[C@@]1(C(=O)O)CCCC(C)(C)[C@@H]1CC2 [carnosic acid]
stephilococus
  antibiotic action: antibiotic action
[1]
  change in concentration of carnosic acid: marked decrease
[2]
  antioxidant activity: very potent antioxidant
[3]; Acetic 1%, +2 Hours
  Concentration of Carnosic: 4.77 mg/mL
[3]; Acetic 1%, +5 Hours
  Concentration of Carnosic: 4.74 mg/mL
[3]; Acetic 1%, +1 hour
  Concentration of Carnosic: 4.76 mg/mL
[3]; Acetic 1%, +24 hour
  Concentration of Carnosic: 4.59 mg/mL
[3]; Acetic 1%, +48 hours
  Concentration of Carnosic: 4.26 mg/mL
[3]; Acetic 1%, Time Zero
  Concentration of Carnosic: 4.8 mg/mL
[3]; Acetic 2%, +2 Hours
  Concentration of Carnosic: 4.69 mg/mL
[3]; Acetic 2%, +5 Hours
  Concentration of Carnosic: 4.71 mg/mL
[3]; Acetic 2%, +1 hour
  Concentration of Carnosic: 4.79 mg/mL
[3]; Acetic 2%, +24 hour
  Concentration of Carnosic: 4.49 mg/mL
[3]; Acetic 2%, +48 hours
  Concentration of Carnosic: 4.23 mg/mL
[3]; Acetic 2%, Time Zero
  Concentration of Carnosic: 4.8 mg/mL
[3]; Ascorbic 0.05%, +2 Hours
  Concentration of Carnosic: 4.71 mg/mL
[3]; Ascorbic 0.05%, +5 Hours
  Concentration of Carnosic: 4.68 mg/mL
[3]; Ascorbic 0.05%, +1 hour
  Concentration of Carnosic: 4.75 mg/mL
[3]; Ascorbic 0.05%, +24 hour
  Concentration of Carnosic: 4.78 mg/mL
[3]; Ascorbic 0.05%, +48 hours
  Concentration of Carnosic: 4.79 mg/mL
[3]; Ascorbic 0.05%, Time Zero
  Concentration of Carnosic: 4.8 mg/mL
[3]; Ascorbic 0.1%, +2 Hours
  Concentration of Carnosic: 4.71 mg/mL
[3]; Ascorbic 0.1%, +5 Hours
  Concentration of Carnosic: 4.72 mg/mL
[3]; Ascorbic 0.1%, +1 hour
  Concentration of Carnosic: 4.74 mg/mL
[3]; Ascorbic 0.1%, +24 hour
  Concentration of Carnosic: 4.79 mg/mL
[3]; Ascorbic 0.1%, +48 hours
  Concentration of Carnosic: 4.79 mg/mL
[3]; Ascorbic 0.1%, Time Zero
  Concentration of Carnosic: 4.8 mg/mL
[3]; Ascorbic 0.5%, +2 Hours
  Concentration of Carnosic: 4.83 mg/mL
[3]; Ascorbic 0.5%, +5 Hours
  Concentration of Carnosic: 4.82 mg/mL
[3]; Ascorbic 0.5%, +1 hour
  Concentration of Carnosic: 4.86 mg/mL
[3]; Ascorbic 0.5%, +24 hour
  Concentration of Carnosic: 4.81 mg/mL
[3]; Ascorbic 0.5%, +48 hours
  Concentration of Carnosic: 4.82 mg/mL
[3]; Ascorbic 0.5%, Time Zero
  Concentration of Carnosic: 4.8 mg/mL
[3]; Ascorbic 1%, +2 Hours
  Concentration of Carnosic: 4.84 mg/mL
[3]; Ascorbic 1%, +5 Hours
  Concentration of Carnosic: 4.84 mg/mL
[3]; Ascorbic 1%, +1 hour
  Concentration of Carnosic: 4.83 mg/mL
[3]; Ascorbic 1%, +24 hour
  Concentration of Carnosic: 4.82 mg/mL
[3]; Ascorbic 1%, +48 hours
  Concentration of Carnosic: 4.80 mg/mL
[3]; Ascorbic 1%, Time Zero
  Concentration of Carnosic: 4.8 mg/mL
[3]; Citric 0.1%, +2 Hours
  Concentration of Carnosic: 4.56 mg/mL
[3]; Citric 0.1%, +5 Hours
  Concentration of Carnosic: 4.49 mg/mL
[3]; Citric 0.1%, +1 hour
  Concentration of Carnosic: 4.73 mg/mL
[3]; Citric 0.1%, +24 hour
  Concentration of Carnosic: 4.27 mg/mL
[3]; Citric 0.1%, +48 hours
  Concentration of Carnosic: 4.13 mg/mL
[3]; Citric 0.1%, Time Zero
  Concentration of Carnosic: 4.8 mg/mL
[3]; Citric 0.5%, +2 Hours
  Concentration of Carnosic: 4.58 mg/mL
[3]; Citric 0.5%, +5 Hours
  Concentration of Carnosic: 4.53 mg/mL
[3]; Citric 0.5%, +1 hour
  Concentration of Carnosic: 4.76 mg/mL
[3]; Citric 0.5%, +24 hour
  Concentration of Carnosic: 4.51 mg/mL
[3]; Citric 0.5%, +48 hours
  Concentration of Carnosic: 4.22 mg/mL
[3]; Citric 0.5%, Time Zero
  Concentration of Carnosic: 4.8 mg/mL
[3]; Citric 1%, +2 Hours
  Concentration of Carnosic: 4.53 mg/mL
[3]; Citric 1%, +5 Hours
  Concentration of Carnosic: 4.56 mg/mL
[3]; Citric 1%, +1 hour
  Concentration of Carnosic: 4.76 mg/mL
[3]; Citric 1%, +24 hour
  Concentration of Carnosic: 4.56 mg/mL
[3]; Citric 1%, +48 hours
  Concentration of Carnosic: 4.42 mg/mL
[3]; Citric 1%, Time Zero
  Concentration of Carnosic: 4.8 mg/mL
[3]; Control, acid 0%, +2 Hours
  Concentration of Carnosic: 4.42 mg/mL
[3]; Control, acid 0%, +5 Hours
  Concentration of Carnosic: 4.27 mg/mL
[3]; Control, acid 0%, +1 hour
  Concentration of Carnosic: 4.51 mg/mL
[3]; Control, acid 0%, +24 hour
  Concentration of Carnosic: 3.55 mg/mL
[3]; Control, acid 0%, +48 hours
  Concentration of Carnosic: 2.78 mg/mL
[3]; Control, acid 0%, Time Zero
  Concentration of Carnosic: 4.8 mg/mL
[3]; HCI 0.1%, +2 Hours
  Concentration of Carnosic: 4.68 mg/mL
[3]; HCI 0.1%, +5 Hours
  Concentration of Carnosic: 4.52 mg/mL
[3]; HCI 0.1%, +1 hour
  Concentration of Carnosic: 4.72 mg/mL
[3]; HCI 0.1%, +24 hour
  Concentration of Carnosic: 3.69 mg/mL
[3]; HCI 0.1%, +48 hours
  Concentration of Carnosic: 2.93 mg/mL
[3]; HCI 0.1%, Time Zero
  Concentration of Carnosic: 4.8 mg/mL
[3]; HCI 1%, +2 Hours
  Concentration of Carnosic: 4.72 mg/mL
[3]; HCI 1%, +5 Hours
  Concentration of Carnosic: 4.53 mg/mL
[3]; HCI 1%, +1 hour
  Concentration of Carnosic: 4.78 mg/mL
[3]; HCI 1%, +24 hour
  Concentration of Carnosic: 4.54 mg/mL
[3]; HCI 1%, +48 hours
  Concentration of Carnosic: 4.39 mg/mL
[3]; HCI 1%, Time Zero
  Concentration of Carnosic: 4.8 mg/mL
[3]; HCI 2%, +2 Hours
  Concentration of Carnosic: 4.70 mg/mL
[3]; HCI 2%, +5 Hours
  Concentration of Carnosic: 4.58 mg/mL
[3]; HCI 2%, +1 hour
  Concentration of Carnosic: 4.76 mg/mL
[3]; HCI 2%, +24 hour
  Concentration of Carnosic: 4.46 mg/mL
[3]; HCI 2%, +48 hours
  Concentration of Carnosic: 4.42 mg/mL
[3]; HCI 2%, Time Zero
  Concentration of Carnosic: 4.8 mg/mL
[3]; Phosphoric 1%, +2 Hours
  Concentration of Carnosic: 4.79 mg/mL
[3]; Phosphoric 1%, +5 Hours
  Concentration of Carnosic: 4.76 mg/mL
[3]; Phosphoric 1%, +1 hour
  Concentration of Carnosic: 4.82 mg/mL
[3]; Phosphoric 1%, +24 hour
  Concentration of Carnosic: 4.78 mg/mL
[3]; Phosphoric 1%, +48 hours
  Concentration of Carnosic: 4.79 mg/mL
[3]; Phosphoric 1%, Time Zero
  Concentration of Carnosic: 4.8 mg/mL
[3]; Phosphoric 2%, +2 Hours
  Concentration of Carnosic: 4.79 mg/mL
[3]; Phosphoric 2%, +5 Hours
  Concentration of Carnosic: 4.75 mg/mL
[3]; Phosphoric 2%, +1 hour
  Concentration of Carnosic: 4.77 mg/mL
[3]; Phosphoric 2%, +24 hour
  Concentration of Carnosic: 4.81 mg/mL
[3]; Phosphoric 2%, +48 hours
  Concentration of Carnosic: 4.78 mg/mL
[3]; Phosphoric 2%, Time Zero
  Concentration of Carnosic: 4.8 mg/mL
[3]; in acidic polar solution containing water, lower alkyl alcohol and acid
  period for which carnosic acid is stable: more than 24 hours
[3]; lack of acid
  decrease of carnosic acid: 50%
